For one data set, the target named is HIV-1 IN (3′-P) (Human immunodeficiency virus type 1 group M subtype B, UniProt P04585). The experiment in a line: HIV-1 IN gel-based assay, 3′-processing. The format is biochemical.
The subject of a further data set is HIV-1(IIIB). To be noted: for SI = CC50/EC50: Table 1.
In the next data set the target is HIV-1 RT RNase H (Human immunodeficiency virus type 1 group M subtype B, UniProt P04585). The data set can be described thus: HIV-1 RT RNase H inhibition. The format is biochemical.

The values below come from publication PMC8320704 (Journal of medicinal chemistry, 2015).

Molecules are shown by their SMILES. A value given as a limit tells only on which side of the number the result lay.

On to `O=C(O)/C(O)=C/C(=O)c1cn(Cc2ccncc2)c2ccccc2c1=O` [11z, 2-Hydroxy-4-oxo-4-(4-oxo-1-(pyridin-4-ylmethyl)-1,4-dihydroquinolin-3-yl)but-2-enoic Acid], for which the IC50 against HIV-1 IN (3′-P) is > 1000 µM.

`COc1ccccc1Cn1cc(C(=O)/C=C(\O)C(=O)O)c(=O)c2ccccc21` [11c, 4-[1-(2-Methoxyphenyl)methyl-4(1H)-quinolinon-3-yl]-2-hydroxy-4-oxo-2-butenoic Acid]: in the data set with HIV-1(IIIB), the “SI = CC50/EC50” value is on record as >5.4. For the same compound, the concentration for half-maximal inhibition (IC50) on HIV-1 IN (3′-P) is > 4.1 µM.

As for `CCOC(=O)/C(O)=C/C(=O)c1cn(Cc2cccc(Cl)c2F)c2ccccc2c1=O` [10s, 4-[1-(3-Chloro-2-fluorophenyl)methyl-4(1H)-quinolinon-3-yl]-2-hydroxy-4-oxo-2-butenoic Acid Ethyl Ester], in the data set with HIV-1(IIIB), the “SI = CC50/EC50” value is reported as >5.

As to `O=C(O)/C(O)=C/C(=O)c1cn(Cc2cc(F)ccc2F)c2ccccc2c1=O` [11k, 4-[1-(2,5-Difluorophenyl)methyl-4(1H)-quinolinon-3-yl]-2-hydroxy-4-oxo-2-butenoic Acid], on HIV-1 RT RNase H (RNase H IC50, Table 1), the IC50 was > 50 µM.

Take `CCOC(=O)/C(O)=C/C(=O)c1cn(Cc2c(Cl)cccc2Cl)c2ccccc2c1=O` [10p, 4-[1-(2,6-Dichlorophenyl)methyl-4(1H)-quinolinon-3-yl]-2-hydroxy-4-oxo-2-butenoic Acid Ethyl Ester]: the IC50 at HIV-1 RT RNase H (RNase H IC50, Table 1) is > 50 µM. Also, in the data set with HIV-1(IIIB), the “SI = CC50/EC50” value is >1.7.

Consider `CCOC(=O)/C(O)=C/C(=O)c1cn(Cc2ccc(F)c(Cl)c2)c2ccccc2c1=O` [10t, 4-[1-(3-Chloro-4-fluorophenyl)methyl-4(1H)-quinolinon-3-yl]-2-hydroxy-4-oxo-2-butenoic Acid Ethyl Ester], for which the “SI = CC50/EC50” value with HIV-1(IIIB) was >2.9.

`O=C(O)/C(O)=C/C(=O)c1cn(Cc2ccccc2F)c2c(Cl)cccc2c1=O` [11v, 8-Chloro-4-[1-(2-fluorophenyl)methyl-4(1H)-quinolinon-3-yl]-2-hydroxy-4-oxo-2-butenoic Acid]: the IC50 against HIV-1 RT RNase H (RNase H IC50, Table 1) is > 50 µM.

Turning to `O=C(O)/C(O)=C/C(=O)c1cn(Cc2c(F)cccc2F)c2ccccc2c1=O` [11l, 4-[1-(2,6-Difluorophenyl)methyl-4(1H)-quinolinon-3-yl]-2-hydroxy-4-oxo-2-butenoic Acid], the IC50 at HIV-1 RT RNase H (RNase H IC50, text) was ~10 µM. For the same compound, the “SI = CC50/EC50” value in the data set with HIV-1(IIIB) was >6.2.

In the case of `O=C(O)/C(O)=C/C(=O)c1cn(Cc2ccc(Cl)cc2)c2ccccc2c1=O` [11f, 4-[1-(4-Chlorophenyl)methyl-4(1H)-quinolinon-3-yl]-2-hydroxy-4-oxo-2-butenoic Acid], the IC50 against HIV-1 RT RNase H (RNase H IC50, Table 1) was > 50 µM. In the data set with HIV-1(IIIB), the “selectivity index (SI)” value is reported as > 57.5 and the “SI = CC50/EC50” value was >57.5.

In the case of `O=C(O)/C(O)=C/C(=O)c1cn(Cc2ccc(F)cc2F)c2ccccc2c1=O` [11j, 4-[1-(2,4-Difluorophenyl)methyl-4(1H)-quinolinon-3-yl]-2-hydroxy-4-oxo-2-butenoic Acid], the “SI = CC50/EC50” value in the data set with HIV-1(IIIB) is listed as >3.6.

As for `CCOC(=O)/C(O)=C/C(=O)c1cn(Cc2ccccc2F)c2cc(Cl)ccc2c1=O` [10w, 4-[7-Chloro-1-(2-fluorophenyl)methyl-4(1H)-quinolinon-3-yl]-2-hydroxy-4-oxo-2-butenoic Acid Ethyl Ester], the “SI = CC50/EC50” value with HIV-1(IIIB) is listed as >4.5.

For `CCOC(=O)/C(O)=C/C(=O)c1cn(Cc2ccc(O)cc2)c2ccccc2c1=O` [10g, 4-[1-(4-Hydroxyphenyl)methyl-4(1H)-quinolinon-3-yl]-2-hydroxy-4-oxo-2-butenoic Acid Ethyl Ester], the “SI = CC50/EC50” value in the data set with HIV-1(IIIB) is >1.6. Besides, at HIV-1 IN (3′-P), the IC50 is > 333 µM.

With `CCOC(=O)/C(O)=C/C(=O)c1cn(Cc2ccc3ccccc3c2)c2ccccc2c1=O` [10y, 2-Hydroxy-4-(1-(naphthalen-2-ylmethyl)-4-oxo-1,4-dihydroquinolin-3-yl)-4-oxobut-2-enoic Acid Ethyl Ester], at HIV-1 IN (3′-P), the IC50 was > 333 µM.

On to `COc1ccc(Cn2cc(C(=O)/C=C(\O)C(=O)O)c(=O)c3ccccc32)cc1` [11h, 4-[1-(4-Methoxyphenyl)methyl-4(1H)-quinolinon-3-yl]-2-hydroxy-4-oxo-2-butenoic Acid], for which, on HIV-1 RT RNase H (RNase H IC50, Table 1), the IC50 was > 50 µM.

For `CCOC(=O)/C(O)=C/C(=O)c1cn(Cc2ccc(F)cc2F)c2ccccc2c1=O` [10j, 4-[1-(2,4-Difluorophenyl)methyl-4(1H)-quinolinon-3-yl]-2-hydroxy-4-oxo-2-butenoic Acid Ethyl Ester], in the data set with HIV-1(IIIB), the “selectivity index (SI)” value is given as > 86.2 and the “SI = CC50/EC50” value was >86.2.

As for `CCOC(=O)/C(O)=C/C(=O)c1cn(Cc2cccc(F)c2)c2ccccc2c1=O` [10d, 4-[1-(3-Fluorophenyl)methyl-4(1H)-quinolinon-3-yl]-2-hydroxy-4-oxo-2-butenoic Acid Ethyl Ester], the “SI = CC50/EC50” value in the data set on HIV-1(IIIB) is >29.4. On HIV-1 IN (3′-P), the 50% inhibitory concentration (IC50) is > 12.3 µM.

`O=C(O)/C(O)=C/C(=O)c1cn(Cc2cc(F)cc(F)c2)c2ccccc2c1=O` [11n, 4-[1-(3,5-Difluorophenyl)methyl-4(1H)-quinolinon-3-yl]-2-hydroxy-4-oxo-2-butenoic Acid]: the IC50 at HIV-1 RT RNase H (RNase H IC50, Table 1) is > 50 µM.

Take `CCOC(=O)/C(O)=C/C(=O)c1cn(Cc2ccccc2)c2ccccc2c1=O` [10a, 4-[1-Phenylmethyl-4(1H)-quinolinon-3-yl]-2-hydroxy-4-oxo-2-butenoic Acid Ethyl Ester]: the “SI = CC50/EC50” value with HIV-1(IIIB) is given as >50. Moreover, the IC50 at HIV-1 IN (3′-P) is > 1000 µM.

Take `CCOC(=O)/C(O)=C/C(=O)c1cn(Cc2ccc3ccccc3n2)c2ccccc2c1=O` [10aa, 2-Hydroxy-4-oxo-4-(4-oxo-1-(quinolin-2-ylmethyl)-1,4-dihydroquinolin-3-yl)but-2-enoic Acid Ethyl Ester]: the IC50 on HIV-1 IN (3′-P) is > 1000 µM.

Regarding `CCOC(=O)/C(O)=C/C(=O)c1cn(Cc2cccc(OC)c2)c2ccccc2c1=O` [10e, 4-[1-(3-Methoxyphenyl)methyl-4(1H)-quinolinon-3-yl]-2-hydroxy-4-oxo-2-butenoic Acid Ethyl Ester], the IC50 on HIV-1 IN (3′-P) was > 333 µM.

Take `CCOC(=O)/C(O)=C/C(=O)c1cn(Cc2ccccc2OC)c2ccccc2c1=O` [10c, 4-[1-(2-Methoxyphenyl)methyl-4(1H)-quinolinon-3-yl]-2-hydroxy-4-oxo-2-butenoic Acid Ethyl Ester]: in the data set on HIV-1(IIIB), the “SI = CC50/EC50” value is recorded as >19.2. Besides, on HIV-1 IN (3′-P), the half-inhibitory concentration (IC50) was > 333 µM.

For `CCOC(=O)/C(O)=C/C(=O)c1cn(Cc2ccncc2)c2ccccc2c1=O` [10z, 2-Hydroxy-4-oxo-4-(4-oxo-1-(pyridin-4-ylmethyl)-1,4-dihydroquinolin-3-yl)but-2-enoic Acid Ethyl Ester], the IC50 against HIV-1 IN (3′-P) is > 333 µM.

As to `COc1cccc(Cn2cc(C(=O)/C=C(\O)C(=O)O)c(=O)c3ccccc32)c1` [11e, 4-[1-(3-Methoxyphenyl)methyl-4(1H)-quinolinon-3-yl]-2-hydroxy-4-oxo-2-butenoic Acid], the IC50 against HIV-1 IN (3′-P) was > 4.1 µM.

With `O=C(O)/C(O)=C/C(=O)c1cn(Cc2ccccc2F)c2ccccc2c1=O` [11b, 4-[1-(2-Fluorophenyl)methyl-4(1H)-quinolinon-3-yl]-2-hydroxy-4-oxo-2-butenoic Acid], the 50% inhibitory concentration (IC50) on HIV-1 RT RNase H (RNase H IC50, Table 1) is > 50 µM. The “SI = CC50/EC50” value with HIV-1(IIIB) is given as >19.2.

In the case of `CCOC(=O)/C(O)=C/C(=O)c1cn(Cc2ccc(F)c(Cl)c2)c2c(Cl)cccc2c1=O` [10u, 8-Chloro-4-[1-(3-chloro-4-fluorophenyl)methyl-4(1H)-quinolinon-3-yl]-2-hydroxy-4-oxo-2-butenoic Acid Ethyl Ester], the IC50 on HIV-1 IN (3′-P) is > 333 µM.

On to `O=C(O)/C(O)=C/C(=O)c1cn(Cc2cccc(Cl)c2F)c2ccccc2c1=O` [11s, 4-[1-(3-Chloro-2-fluorophenyl)methyl-4(1H)-quinolinon-3-yl]-2-hydroxy-4-oxo-2-butenoic Acid], for which, in the data set on HIV-1(IIIB), the “SI = CC50/EC50” value is >2.1.

Take `CCOC(=O)/C(O)=C/C(=O)c1cn(Cc2ccc(F)c(F)c2)c2ccccc2c1=O` [10m, 4-[1-(3,4-Difluorophenyl)methyl-4(1H)-quinolinon-3-yl]-2-hydroxy-4-oxo-2-butenoic Acid Ethyl Ester]: the “SI = CC50/EC50” value with HIV-1(IIIB) is >5.1.

For `O=C(O)/C(O)=C/C(=O)c1cn(Cc2ccccc2F)c2cc(Cl)ccc2c1=O` [11w, 4-[7-Chloro-1-(2-fluorophenyl)methyl-4(1H)-quinolinon-3-yl]-2-hydroxy-4-oxo-2-butenoic Acid], the “SI = CC50/EC50” value in the data set on HIV-1(IIIB) is >2.9.

For the compound `CCOC(=O)/C(O)=C/C(=O)c1cn(Cc2c(F)cccc2F)c2ccccc2c1=O` [10l, 4-[1-(2,6-Difluorophenyl)methyl-4(1H)-quinolinon-3-yl]-2-hydroxy-4-oxo-2-butenoic Acid Ethyl Ester], in the data set with HIV-1(IIIB), the “selectivity index (SI)” value was > 250 and the “SI = CC50/EC50” value is >250. At HIV-1 IN (3′-P), the 50% inhibitory concentration (IC50) was > 12.3 µM.

For the compound `CCOC(=O)/C(O)=C/C(=O)c1cn(Cc2ccccc2F)c2ccccc2c1=O` [10b, 4-[1-(2-Fluorophenyl)methyl-4(1H)-quinolinon-3-yl]-2-hydroxy-4-oxo-2-butenoic Acid Ethyl Ester], the “SI = CC50/EC50” value in the data set with HIV-1(IIIB) is given as >33.4.

In the case of `CCOC(=O)/C(O)=C/C(=O)c1cn(CCCCc2ccccc2)c2ccccc2c1=O` [10x, 2-Hydroxy-4-oxo-4-(4-oxo-1-(4-phenylbutyl)-1,4-dihydroquinolin-3-yl)but-2-enoic Acid Ethyl Ester], on HIV-1 IN (3′-P), the IC50 was > 333 µM.

Take `O=C(O)/C(O)=C/C(=O)c1cn(Cc2ccc(F)c(F)c2)c2ccccc2c1=O` [11m, 4-[1-(3,4-Difluorophenyl)methyl-4(1H)-quinolinon-3-yl]-2-hydroxy-4-oxo-2-butenoic Acid]: the concentration for half-maximal inhibition (IC50) at HIV-1 RT RNase H (RNase H IC50, Table 1) was > 50 µM. In addition, the “SI = CC50/EC50” value with HIV-1(IIIB) is on record as >3.1.

As for `CCOC(=O)/C(O)=C/C(=O)c1cn(Cc2cc(F)cc(F)c2)c2ccccc2c1=O` [10n, 4-[1-(3,5-Difluorophenyl)methyl-4(1H)-quinolinon-3-yl]-2-hydroxy-4-oxo-2-butenoic Acid Ethyl Ester], the “SI = CC50/EC50” value in the data set with HIV-1(IIIB) is reported as >1.5.

As to `O=C(O)/C(O)=C/C(=O)c1cn(Cc2cccc(F)c2)c2ccccc2c1=O` [11d, 4-[1-(3-Fluorophenyl)methyl-4(1H)-quinolinon-3-yl]-2-hydroxy-4-oxo-2-butenoic Acid], the “SI = CC50/EC50” value with HIV-1(IIIB) is listed as >1.8.
